From article PMC7997578, “Design, Synthesis, Dynamic Docking, Biochemical Characterization, and in Vivo Pharmacokinetics Studies of Novel Topoisomerase II Poisons with Promising Antiproliferative Activity” (Journal of Medicinal Chemistry, 2020)
Values after ≈ are worked out from the molar mass of the structure shown. Read-outs that look alike come from different tables or passages of the source.

Columns and labels:
human topoIIα = molecular target: T1, human topoIIα (Homo sapiens, UniProt P11388); experiment: topoII decatenation assay (Inspiralis); type: biochemical; settings: human topoIIα decatenation assay; mean ± SD of two independent experiments; read-out: IC50
T1 construct: purchased Inspiralis
T1 sequence (P11388 whole entry): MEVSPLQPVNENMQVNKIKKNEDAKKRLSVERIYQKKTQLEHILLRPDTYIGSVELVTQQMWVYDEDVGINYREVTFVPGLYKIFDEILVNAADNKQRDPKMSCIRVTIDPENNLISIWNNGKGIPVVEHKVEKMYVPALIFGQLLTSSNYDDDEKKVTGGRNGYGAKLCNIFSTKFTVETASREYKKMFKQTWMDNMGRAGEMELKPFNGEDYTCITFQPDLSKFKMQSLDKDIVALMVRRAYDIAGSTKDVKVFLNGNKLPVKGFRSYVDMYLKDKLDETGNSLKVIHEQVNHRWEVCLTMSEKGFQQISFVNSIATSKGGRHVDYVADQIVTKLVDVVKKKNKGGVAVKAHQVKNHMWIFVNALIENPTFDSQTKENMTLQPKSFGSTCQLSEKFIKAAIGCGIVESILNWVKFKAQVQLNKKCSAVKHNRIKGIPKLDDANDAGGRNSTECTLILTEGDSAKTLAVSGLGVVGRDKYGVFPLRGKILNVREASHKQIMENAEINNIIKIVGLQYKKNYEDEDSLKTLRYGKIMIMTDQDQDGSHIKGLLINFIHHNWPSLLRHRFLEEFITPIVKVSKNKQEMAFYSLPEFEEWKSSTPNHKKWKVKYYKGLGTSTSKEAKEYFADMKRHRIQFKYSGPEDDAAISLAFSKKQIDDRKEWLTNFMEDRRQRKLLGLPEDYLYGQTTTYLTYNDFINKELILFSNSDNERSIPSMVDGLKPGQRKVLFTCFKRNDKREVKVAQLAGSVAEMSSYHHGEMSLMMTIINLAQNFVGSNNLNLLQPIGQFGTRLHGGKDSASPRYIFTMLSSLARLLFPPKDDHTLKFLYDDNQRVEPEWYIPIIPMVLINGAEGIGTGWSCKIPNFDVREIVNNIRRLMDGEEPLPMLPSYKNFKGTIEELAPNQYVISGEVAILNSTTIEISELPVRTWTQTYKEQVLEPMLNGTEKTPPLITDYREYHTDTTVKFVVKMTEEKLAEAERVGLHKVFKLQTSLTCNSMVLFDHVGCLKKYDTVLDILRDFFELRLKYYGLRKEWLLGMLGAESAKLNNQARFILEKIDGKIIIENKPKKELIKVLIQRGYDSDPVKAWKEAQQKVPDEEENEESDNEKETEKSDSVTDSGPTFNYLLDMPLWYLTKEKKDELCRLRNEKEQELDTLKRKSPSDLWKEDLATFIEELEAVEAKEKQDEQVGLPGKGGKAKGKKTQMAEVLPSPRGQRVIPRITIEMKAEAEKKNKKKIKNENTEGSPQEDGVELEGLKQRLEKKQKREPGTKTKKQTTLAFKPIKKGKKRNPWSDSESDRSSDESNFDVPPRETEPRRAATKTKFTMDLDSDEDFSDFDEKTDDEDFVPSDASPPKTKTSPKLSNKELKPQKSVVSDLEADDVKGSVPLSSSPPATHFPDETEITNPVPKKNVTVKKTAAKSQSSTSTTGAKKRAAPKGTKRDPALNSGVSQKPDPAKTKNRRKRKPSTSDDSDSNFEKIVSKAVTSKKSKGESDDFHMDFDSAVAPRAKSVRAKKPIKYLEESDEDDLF
Experimental: We measured the inhibitor activity of our new compounds against human topoIIα, using a topoII decatenation assay (Table 1).
The activity of topoIIα was measured using a decatenation assay (Inspiralis) following the manufacturer’s instructions. Compounds were dissolved in DMSO and used at a concentration ranging from 200 to 1 μM. Final DMSO concentration in the assay was ≤1%. Reaction mixtures were incubated for 30 min at 37 °C and terminated with STEB buffer (40% (w/v) sucrose, 100 mM Tris-HCl, pH 8, 1 mM EDTA, 0.5 mg/mL bromophenol blue). Reaction products were resolved by electrophoresis in 1% agarose gels containing SYBR Safe DNA stain (Invitrogen), scanned, and quantified using the ChemiDoc system (BioRad). IC50 values were obtained with GraphPad Prism software (version 5.03) using the band intensities of the dose–response gels. Values are reported as the mean ± SD of two independent experiments.

HeLa cells = experiment: cell viability MTT assay, HeLa; type: cell-based, human; settings: HeLa cervical cancer cells, mean ± SD of two experiments, read-out: HeLa antiproliferative activity IC50
Experimental: (§1) The antiproliferative activity of all compounds was evaluated in (i) DU145, an androgen-independent prostate cancer cell line; (ii) HeLa, a cervical cancer cell line; and (iii) A549, a lung adenocarcinoma cell line (Table 1). […] Undoubtedly, this preliminary cytotoxicity data will need further characterization, also in relation to the in vitro activity of these compounds.
(§2) Human cancer cell lines A549 (lung adenocarcinoma, ATCC CCL-185), DU-145 (androgen-independent prostate cancer, ATCC HTB-81), and HeLa (cervical carcinoma, ATCC CCL-2) were obtained from ATCC. Cells were routinely grown in minimal essential medium containing Eagle’s salts and L-glutamine supplemented with 10% heat-inactivated FBS in a humidified atmosphere of 5% CO2 at 37 °C. To assess the antiproliferative activity of the compounds, cells were seeded at a density of 2500 cells/well (HeLa) or 5000 cells/well (A549, DU-145) in 96-well plates, and cell viability was measured using the MTT assay as described previously.[39] Values are reported as the mean ± SD of two independent experiments.

A549 cells = experiment: cell viability MTT assay, A549; type: cell-based, human; settings: mean ± SD of two experiments, read-out: A549 antiproliferative activity IC50
Experimental: as §1, §2

DU145 cells = experiment: cell viability MTT assay, DU145; type: cell-based, human; settings: mean ± SD of two experiments, read-out: DU145 antiproliferative activity IC50
Experimental: as §1, §2

[1] = aqueous kinetic solubility; type: physicochemical; settings: PBS, pH 7.4, PBS pH 7.4, target 250 µM, 2.5% DMSO, 25°C
Experimental: 1. In vitro m etabolic stabili ty
In vitro microsomial stability. 10mM DMSO stock solution of test compound was pre-incubated at 37 °C for 15min with mouse liver microsomes added 0.1M Tris-HCl buffer (pH 7.4). The final concentration was 4.6µM. After pre -incubation, the co-factors (NADPH, G6P, G6PDH and MgCl2 pre-dissolved in 0.1M Tris-HCl) were added to the incubation mixture and the incubation was continued at 37 °C for 1h. At each time point (0, 5, 15, 30, 60min), 30µL of incubation mixture was diluted with 200µL cold CH 3CN spiked with 200n M of internal standard, followed by centrifugation at 3500g for 15min. The supernatant was further diluted with H2O (1:1) for analysis. The concentration of test compound was quantified by LC/MS-MS on a Waters ACQUITY UPLC/M S TQD system consisting of a TQD (Triple Quadrupole Detector) Mass Spectrometer equipped with an Electrospray Ionization interface. The analyses were run on an ACQUITY UPLC BEH C18 (50x2.1mmID, particle size 1.7µm) with a VanGuard BEH C18 pre -column (5x2.1mmID, particle size 1.7µm) at 40°C, using 0.1% HCOOH in H 2O (A) and 0.1% HCOOH in CH 3CN (B) as mobile phase. Electrospray ionization (ESI) was app lied in positive mode . The percentage of test compound remaining at each time point relative to t=0 was calculated. The half -lives (t½) were determined by an one-phase decay equation using a non -linear regression of compound concentration versus time.
In vitro Plasma Stability. 10mM DMSO stock solution of test compound was diluted 50 -fold with DMSO-H2O (1:1) and incubated at 37 °C for 2 h with mouse plasma added 5% DMSO (pre-heated at 37 °C for 10 min). The final concentration was 2µM. At each time point (0, 5, 15, 30, 60, 120min), 50 µL of incubation mixture was diluted with 200µL cold CH3CN spiked with 200nM of internal standard, followed by centrifugation at 3500g for 20min. The supernatant was further diluted with H2O (1:1) for analysis. The concentration of test compound was quantified by LC/MS-MS on a Waters ACQUITY UPLC/MS TQD system consisting of a TQD (Triple Quadrupole Detector) Mass Spectrometer equipped with an Electrospray Ionization interface. The analyses were run on an ACQUITY UPLC BEH C18 (50x2.1mmID, particle size 1.7µm) with a VanGuard BEH C18 pre - column (5x2.1mmID, particle size 1.7µm) at 40°C, using 0.1% HCOOH in H2O (A) and 0.1% HCOOH in CH3CN (B) as mobile phase. Electrospray ionization (ESI) was applied in positive mode.
The response factors, calculated on the basis of the internal standard peak area, were plotted over time. When possible, response vs. time profiles were fitted with Prism (GraphPad Software, Inc., USA) to estimate compounds half-life in plasma.
2. Aqueous ki netic solu bili ty
The aqueous kinetic solubility was determined from a 10mM DMSO stock solution of test compound in Phosphate Buffered Saline (PBS) at pH 7.4. The study was performed by incubation of an aliquot of 10mM DMSO stock solution in PBS (pH 7.4) at a target concentration of 250µM resulting in a final concentration of 2.5% DMSO. The incubation was carried out under shaking at 25°C for 24h followed by centrifugation at 21.100g for 30min. The supernatant was analyzed by UPLC/MS for the quantification of dissolved compound by UV at a specific wavelength (215nm).
The analyses were performed on a Waters ACQUITY UPLC/MS SQD system consisting of a SQD (Single Quadrupole Detector) Mass Spectrometer equipped with Electrospray Ionization interface.
The analyses were run on an ACQUITY UPLC BEH C18 column (50x2.1mmID, particle size 1.7µm) with a VanGuard BEH C18 pre-column (5x2.1mmID, particle size 1.7µm), using 10mM NH4OAc in H2O at pH 5 adjusted with AcOH (A) and 10mM NH4OAc in MeCN-H2O (95:5) at pH 5 (B) as […]

[2] = Homo sapiens, A549, A549 lung adenocarcinoma cells
[3] = Homo sapiens, DU-145, DU145 prostate cancer cells

SMILES	IC50 (human topoIIα)	IC50 (HeLa cells; Homo sapiens, HeLa)	IC50 (A549 cells; [2])	IC50 (DU145 cells; [3])	solubility kinetic at 24 h [1]	IC50 (HeLa cells)	IC50 (A549 cells; A549 lung adenocarcinoma cells)	IC50 (DU145 cells; DU145 prostate cancer cells)
CCOc1cccc(NC(=O)c2c(O)n(-c3ccccc3)c(=S)n(-c3ccccc3)c2=O)c1 [3a, N-(3-Ethoxyphenyl)-6-hydroxy-4-oxo-1,3-diphenyl-2-thioxo-1,2,3,4-tetrahydropyrimidine-5-carboxamide]	12.4 ± 3.7 µM	5.2 ± 0.9 µM	3.6 ± 0.4 µM	5.7 ± 1.4 µM				
CC(C)Oc1cccc(NC(=O)c2c(O)n(-c3ccccc3)c(=S)n(-c3ccccc3)c2=O)c1 [3b, 6-Hydroxy-N-(3-isopropoxyphenyl)-4-oxo-1,3-diphenyl-2-thioxo-1,2,3,4-tetrahydropyrimidine-5-carboxamide]	9.7 ± 2.6 µM	4.2 ± 0.3 µM	3 ± 0.3 µM	5.5 ± 0.1 µM	34 µM (≈ 16.1 µg/mL)			
N#Cc1cccc(NC(=O)c2c(O)n(-c3ccccc3)c(=S)n(-c3ccccc3)c2=O)c1 [3c, N-(3-Cyanophenyl)-6-hydroxy-4-oxo-1,3-diphenyl-2-thioxo-1,2,3,4-tetrahydropyrimidine-5-carboxamide]	14.4 ± 3.8 µM	12.4 ± 1.3 µM	16.9 ± 0.3 µM	14.4 ± 4.1 µM				
O=C(Nc1cccc([N+](=O)[O-])c1)c1c(O)n(-c2ccccc2)c(=S)n(-c2ccccc2)c1=O [3d, 6-Hydroxy-N-(3-nitrophenyl)-4-oxo-1,3-diphenyl-2-thioxo-1,2,3,4-tetrahydropyrimidine-5-carboxamide]	10.2 ± 4.6 µM	11.9 ± 2.6 µM	18.5 ± 3.1 µM	6.9 ± 0.3 µM				
O=C(Nc1cccc(F)c1)c1c(O)n(-c2ccccc2)c(=S)n(-c2ccccc2)c1=O [3e, N-(3-Fluorophenyl)-6-hydroxy-4-oxo-1,3-diphenyl-2-thioxo-1,2,3,4-tetrahydropyrimidine-5-carboxamide]	15.1 ± 4.2 µM	5.6 ± 0.5 µM	4.1 ± 0.2 µM	5.6 ± 0.6 µM				
CC(F)(F)c1cccc(NC(=O)c2c(O)n(-c3ccccc3)c(=S)n(-c3ccccc3)c2=O)c1 [3h, N-(3-(1,1-Difluoroethyl)phenyl)-6-hydroxy-4-oxo-1,3-diphenyl-2-thioxo-1,2,3,4-tetrahydropyrimidine-5-carboxamide]	9.2 ± 0.2 µM	< 5 µM	< 5 µM	< 5 µM	6 µM (≈ 2.88 µg/mL)	2.5 ± 0.4 µM	3 ± 1.1 µM	2.7 ± 2.5 µM
